{"source": "paper PMC9637222", "about": "“Autoinducer-2 and bile salts induce c-di-GMP synthesis to repress the T3SS via a T3SS chaperone” (Nature Communications, 2022)", "key": {"YeaJ-LBD": {"molecular_target": "T1, YeaJ-LBD (Salmonella enterica subsp. enterica serovar Typhimurium, UniProt Q8ZPW4)", "T1 sequence (Q8ZPW4 30-304)": "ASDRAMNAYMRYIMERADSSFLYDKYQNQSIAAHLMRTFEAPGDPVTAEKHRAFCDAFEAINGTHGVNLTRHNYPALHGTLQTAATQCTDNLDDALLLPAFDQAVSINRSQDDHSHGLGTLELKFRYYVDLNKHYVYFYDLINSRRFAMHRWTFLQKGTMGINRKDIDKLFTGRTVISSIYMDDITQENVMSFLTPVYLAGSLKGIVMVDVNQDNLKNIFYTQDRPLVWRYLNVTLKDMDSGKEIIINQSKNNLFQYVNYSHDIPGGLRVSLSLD", "experiment": "ITC: DPD/AI-2 binding to YeaJ-LBD", "set-up": "species or system S. Typhimurium", "description": "(§1) ITC measurements were carried out at 20 °C with a Nano ITC Standard Volume isothermal calorimeter (TA Instruments, New Castle, DE) controlled by the ITCRun software. The N-terminal His6 tags of all purified proteins were removed before ITC analysis. For titrations with DPD/AI-2 (Omm Scientific), the tag-free proteins were dialyzed against a Tris buffer (25 mM Tris-HCl, 150 mM NaCl, pH 7.5) and diluted to 70 μM, while DPD/AI-2 was diluted with the same buffer to 700 μM. […] After being degassed, 1 ml of the protein and 250 μl of the ligand solution were added to the sample cell and the syringe, respectively. There were 25 injections per experiment and the stirring speed was 200 rpm. In control experiments, the ligand solution was titrated into the buffer in the sample cell to obtain the heat of dilution. Microcalorimetric data were corrected by subtracting the heats of dilution and fit to the independent binding site model using the NanoAnalyze software."}, "YeaJ-LBDY210A": {"molecular_target": "YeaJ-LBDY210A (Salmonella enterica subsp. enterica serovar Typhimurium, UniProt Q8ZPW4, Y210A)", "experiment": "ITC: DPD/AI-2 binding to YeaJ-LBD Y210A mutant", "set-up": "species or system S. Typhimurium", "conditions": "individual experiments, source data Fig. 2d", "description": "as §1"}, "YeaJ-LBDD239A": {"molecular_target": "YeaJ-LBDD239A (Salmonella enterica subsp. enterica serovar Typhimurium, UniProt Q8ZPW4, D239A)", "experiment": "ITC: DPD/AI-2 binding to YeaJ-LBD D239A mutant", "set-up": "species or system S. Typhimurium", "conditions": "head prints YeaJ-LBDY239A, individual experiments, source data Fig. 2d", "description": "as §1"}, "WP_000766134-LBD": {"molecular_target": "T2, WP_000766134-LBD (Escherichia coli O157:H7, UniProt A0A0H3JEN8)", "T2 sequence (A0A0H3JEN8 31-304)": "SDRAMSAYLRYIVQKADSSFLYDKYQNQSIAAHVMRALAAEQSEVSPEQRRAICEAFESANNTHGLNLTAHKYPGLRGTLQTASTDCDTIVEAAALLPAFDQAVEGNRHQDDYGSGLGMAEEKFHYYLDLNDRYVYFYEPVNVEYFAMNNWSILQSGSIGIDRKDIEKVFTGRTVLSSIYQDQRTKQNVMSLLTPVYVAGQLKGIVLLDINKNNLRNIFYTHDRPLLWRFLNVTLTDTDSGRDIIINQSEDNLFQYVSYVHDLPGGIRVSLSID", "experiment": "ITC: DPD/AI-2 binding to GAPES1 domain of the YeaJ homolog from EHEC O157:H7"}, "KMK13526-LBD": {"molecular_target": "KMK13526-LBD (Pluralibacter gergoviae, UniProt A0A0J5L7D7)", "sequence (A0A0J5L7D7 31-310)": "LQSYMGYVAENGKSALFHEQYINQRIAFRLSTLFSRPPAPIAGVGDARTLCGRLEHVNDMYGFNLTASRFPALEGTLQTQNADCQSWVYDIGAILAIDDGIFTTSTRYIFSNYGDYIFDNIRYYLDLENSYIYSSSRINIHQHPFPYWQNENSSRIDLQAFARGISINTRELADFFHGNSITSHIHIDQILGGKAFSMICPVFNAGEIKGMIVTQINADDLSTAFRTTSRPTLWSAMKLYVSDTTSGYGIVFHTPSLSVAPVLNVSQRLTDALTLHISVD", "experiment": "ITC: DPD/AI-2 binding to KMK13526-LBD", "conditions": "ITC binding stoichiometry n, individual replicates, Supplementary Figure 7b"}, "WP_034494714-LBD": {"molecular_target": "WP_034494714-LBD (Buttiauxella agrestis, UniProt A0A085GF42)", "sequence (A0A085GF42 27-302)": "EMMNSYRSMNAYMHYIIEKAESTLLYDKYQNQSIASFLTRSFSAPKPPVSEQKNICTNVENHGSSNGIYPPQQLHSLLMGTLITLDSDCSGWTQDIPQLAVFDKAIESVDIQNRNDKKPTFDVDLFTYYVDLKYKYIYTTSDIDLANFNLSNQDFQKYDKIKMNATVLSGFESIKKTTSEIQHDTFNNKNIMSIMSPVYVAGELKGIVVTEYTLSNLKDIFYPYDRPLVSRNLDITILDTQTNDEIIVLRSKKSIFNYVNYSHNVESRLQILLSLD", "experiment": "ITC: DPD/AI-2 binding to WP_034494714-LBD", "conditions": "individual replicates, Supplementary Figure 7c"}, "[1]": {"molecular_target": "KMK13526-LBD (H216Y/Q245D) (Pluralibacter gergoviae, UniProt A0A0J5L7D7, H216Y/Q245D)", "sequence (A0A0J5L7D7 31-310 H216Y/Q245D)": "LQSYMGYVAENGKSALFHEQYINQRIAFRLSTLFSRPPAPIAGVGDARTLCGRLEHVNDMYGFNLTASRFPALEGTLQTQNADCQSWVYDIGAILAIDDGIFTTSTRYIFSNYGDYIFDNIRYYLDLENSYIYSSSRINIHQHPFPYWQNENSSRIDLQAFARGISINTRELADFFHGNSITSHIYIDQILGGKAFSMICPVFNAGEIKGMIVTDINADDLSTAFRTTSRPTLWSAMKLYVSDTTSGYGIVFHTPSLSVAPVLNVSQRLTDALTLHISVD", "conditions": "ITC binding stoichiometry n, individual replicates, Supplementary Figure 7d"}, "YeaJ": {"test_system": "YeaJ", "experiment": "In vitro DGC activity assay of YeaJ (membrane fractions, HPLC of c-di-GMP)", "format": "biochemical, S. Typhimurium", "conditions": "100 μM GTP; for Concentration of c-di-GMP: 30 °C"}, "S. Typhimurium": {"test_system": "S. Typhimurium", "experiment": "Cellular c-di-GMP quantification by LC-MS/MS", "format": "cell-based", "conditions": "for Change of intracellular c-di-GMP concentration (in words): exogenous DPD/AI-2 (10 μM, 30 min)", "description": "For stimulation with AI-2, the DPD/AI-2 solution was added to the shaking culture at OD600 of 1.3, followed by another 30 min of incubation at 37 °C. For induction by porcine bile salts and individual bile components (Sigma-Aldrich), substances were added to the static culture at OD600 of 1.1, followed by another 30 min of incubation at 37 °C. About 15 ml of culture was centrifuged and the cells were washed twice with phosphate-buffered saline (PBS, pH 7.0). The cell pellets were resuspended in 500 μl of extraction solution (acetonitrile/methanol/water, 40:40:20, v/v/v) and cooled on ice for 15 min. The samples were boiled for 10 min at 95 °C and then cooled again on ice for 15 min. After centrifugation at 20,000×g and 4 °C for 10 min, supernatants were transferred to new tubes on ice. The remaining pellets were used for two more extraction steps with 500 μl of the extraction solution without heating. Pooled supernatants for each sample were lyophilized, and pellets were resolubilized in 200 μl of distilled water. C-di-GMP concentrations were then measured by LC-MS/MS[63] (AB SCIEX QTRAP 6500+ LC-MS/MS System). Intracellular levels of c-di-GMP were normalized to the number of bacterial cells for each sample."}, "SipB": {"molecular_target": "SipB", "set-up": "species or system S. Typhimurium", "conditions": "ITC, individual replicates, Supplementary Figure 19a; read-out: Kd, SicA binding to SipB", "description": "as §1\n(§2) Supplementary Fig. 19 Isotherms representing binding of SicA and its variants with InvF, SipB and SipC as measured by ITC\n(§3) ITC data and plots of injected heat for 25 automatic injections of 100 μM SicA (a, d, f),SicAK27A (b) or SicAN70A (c, e, g) into the sample cellcontaining 10 μM SipB (a-c), InvF (d, e), or SipC (f,g) are shown inthe upper and lower plots, respectively. […]"}, "InvF": {"molecular_target": "T3, InvF (Salmonella typhimurium, UniProt P69343)", "T3 sequence (P69343 1-216)": "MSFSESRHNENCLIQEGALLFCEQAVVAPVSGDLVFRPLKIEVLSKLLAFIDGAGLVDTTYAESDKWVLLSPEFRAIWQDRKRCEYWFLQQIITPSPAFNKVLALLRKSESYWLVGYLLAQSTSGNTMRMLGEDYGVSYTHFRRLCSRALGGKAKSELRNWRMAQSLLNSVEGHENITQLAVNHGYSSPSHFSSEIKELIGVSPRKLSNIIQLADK", "conditions": "individual replicates, Supplementary Figure 19d", "description": "as §1, §2, §3"}, "SipC": {"molecular_target": "T4, SipC (Salmonella typhimurium, UniProt E1WAC8)", "T4 construct": "His6 (N, cleaved yes); made in house; host or cells: E. coli BL21(DE3) (pET28a-sipC)", "format": "binding, S. Typhimurium", "conditions": "individual replicates, Supplementary Figure 19f", "description": "as §1, §2, §3"}, "[2]": {"conditions": "individual experiments, source data Fig. 1d"}}, "note": "Values joined by “and” are separate entries in the source; they are usually repeats but may differ in a detail not shown here. Equal entries are not always repeated.", "data": [{"molecule": "CC(=O)C(=O)[C@@H](O)CO", "note": "[DPD/AI-2, autoinducer-2]", "values": [{"measurement": "Kd", "setting": "YeaJ-LBD; 20 °C, mean ± s.d. of three independent experiments", "result": "150 ± 20", "unit": "nM"}, {"measurement": "Kd", "setting": "YeaJ-LBD; [2]", "result": "160 nM and 130 nM"}, {"measurement": "n (complex stoichiometry)", "setting": "YeaJ-LBD; [2]", "result": "1.20 and 1.19 and 1.04"}, {"measurement": "Kd", "setting": "YeaJ-LBDY210A", "result": "23000 nM and 29000 nM and 26000 nM"}, {"measurement": "n (complex stoichiometry)", "setting": "YeaJ-LBDY210A", "result": "1.02 and 0.93 and 1.04"}, {"measurement": "Kd", "setting": "YeaJ-LBDD239A", "result": 17000, "unit": "nM"}, {"measurement": "n (complex stoichiometry)", "setting": "YeaJ-LBDD239A", "result": "0.97 and 0.93"}, {"measurement": "n, DPD/AI-2 binding to WP_000766134-LBD", "setting": "WP_000766134-LBD; ITC binding stoichiometry n, individual replicates, Supplementary Figure 7a", "result": "1.18 and 1.17 and 1.13"}, {"measurement": "AI-2 binding affinity (in words)", "setting": "WP_000766134-LBD; ITC, GAPES1 domain of the YeaJ homolog from EHEC O157:H7", "result": "high affinity"}, {"measurement": "Kd", "setting": "WP_000766134-LBD; read-out: Kd, DPD/AI-2 binding to WP_000766134-LBD, ITC, individual replicates, Supplementary Figure 7a", "result": "120 nM and 170 nM"}, {"measurement": "n, DPD/AI-2 binding to KMK13526-LBD", "setting": "KMK13526-LBD", "result": "0.93 and 1.03 and 0.86"}, {"measurement": "n, DPD/AI-2 binding to WP_034494714-LBD", "setting": "WP_034494714-LBD; ITC binding stoichiometry n", "result": "0.94 and 0.97 and 0.98"}, {"measurement": "Kd", "setting": "WP_034494714-LBD; read-out: Kd, DPD/AI-2 binding to WP_034494714-LBD, ITC", "result": "32000 nM and 39000 nM and 38000 nM"}, {"measurement": "n, DPD/AI-2 binding to KMK13526-LBDH216Y/Q245D", "setting": "[1]", "result": "1.11 and 1.03 and 1.17"}, {"measurement": "Concentration of c-di-GMP", "setting": "YeaJ; 100 μM DPD/AI-2, 30 min", "result": "19.68 µM and 20.02 µM and 21.70 µM"}, {"measurement": "Concentration of c-di-GMP", "setting": "YeaJ; 100 μM DPD/AI-2, 60 min", "result": "32.50 µM and 32.49 µM and 31.69 µM"}, {"measurement": "Concentration of c-di-GMP", "setting": "YeaJ; 200 μM DPD/AI-2, 30 min", "result": "39.23 µM and 36.03 µM and 36.70 µM"}, {"measurement": "Concentration of c-di-GMP", "setting": "YeaJ; 200 μM DPD/AI-2, 60 min", "result": "44.10 µM and 43.39 µM and 41.58 µM"}, {"measurement": "Effect on DGC activity of YeaJ in synthesizing c-di-GMP (in words)", "setting": "YeaJ; in vitro, membrane fractions", "result": "stimulates the activity of YeaJ"}, {"measurement": "Change of intracellular c-di-GMP concentration (in words)", "setting": "S. Typhimurium; ΔluxS mutant", "result": "significant increase"}, {"measurement": "c-di-GMP (fmol/107 cells)", "setting": "S. Typhimurium; ΔluxS, 10 μM DPD/AI-2 for 30 min, LB, OD600 1.3, biological replicates", "result": "31.06 fmol/107 cells and 29.99 fmol/107 cells and 27.56 fmol/107 cells"}, {"measurement": "Change of intracellular c-di-GMP concentration (in words)", "setting": "S. Typhimurium; ΔyeaJΔluxS mutant", "result": "did not increase"}]}, {"molecule": "SicA", "values": [{"measurement": "Kd", "setting": "SipB", "result": "500 nM and 560 nM and 540 nM"}, {"measurement": "n, SicA binding to InvF", "setting": "InvF; ITC binding stoichiometry n", "result": "1.00 and 1.13 and 1.16"}, {"measurement": "Kd", "setting": "InvF; read-out: Kd, SicA binding to InvF, ITC", "result": "470 nM and 420 nM and 490 nM"}, {"measurement": "n, SicA binding to SipC", "setting": "SipC; ITC binding stoichiometry n", "result": "1.04 and 1.18 and 1.02"}, {"measurement": "Kd", "setting": "SipC; ITC, read-out: Kd, SicA binding to SipC", "result": "670 nM and 550 nM"}]}]}
